In assay [1] the test system is CHO-T cells. In words: Insulin-induced Tyr phosphorylation of IRS-1 in stably transfected CHO-T cells. The format is cell-based, Chinese Hamster. The procedure: FIGS. 1a-c show Tyrosine (Tyr) phosphorylation of IRS-1^7A and its interactions with IR. FIG. 1a—monolayers of CHO-T cells stably overexpressing either WT-IRS-1 (CHO-T^WT) or IRS-1^7A (CHO-T^7A) at 80% confluence (grown in 6 cm plates) were deprived of serum for 16 h prior to the experiment. The cells were then incubated with insulin for the indicated times at 37° C. Cells extracts (100 μg) were resolved on 7.5 SDS-PAGE and immunoblotted with the indicated antibodies. The results are of a representative of six experiments. FIG. 1b—IRS-1 was isolated from CHO-T^WT or CHO-T^7A cells. In vitro phosphorylation of IRS-1^WT and IRS-1^7A by Insulin receptor (IR) was effected as described under “Materials and Experimental Procedures” section of the Examples section which follows. The reaction mixture was subjected to immunoprecipitation with anti-IRS-1 antibodies. Immunocomplexes were resolved on 7.5 SDS-PAGE and immunoblotted with anti-phosphotyrosine (pY) or anti IRS-1 antibodies. FIG. 1c—CHO-T^WT (expressing wild type IRS-1) and CHO-T^7A (expressing the 7A IRS-1 mutant) cells were deprived of serum for 16 h prior to the experiment. The cells were stimulated with 100 nM insulin for the indicated times at 37° C. Cell extracts were prepared and samples (1 mg) were bound to immobilized IR. […]

Assay [2] concerns insulin receptor. Conditions: Fao cells, 10^−7M insulin, prolonged; cited from earlier work.
Assay [3] deals with S408 of IRS-1. Put plainly: In vivo phosphorylation of S408 of IRS-1 in cultured Fao cells. The format is cell-based, rat. Conditions: 100 nM insulin. The procedure: Following 48 hours, the cells were starved for 16 hours. The medium was removed and the cells were incubated with or without 100 nM insulin for the indicated times (FIG. 10a). Alternatively, the cells were incubated with insulin, SMase or calyculin A as indicated (FIG. 10b). Cytosolic extracts (100 μg) were resolved on 7.5% SDS-PAGE and immunoblotted with anti-phospho-Ser 408 antibody or anti-PY antibodies as indicated.
Infection of Fao cells with adenovirus—Fao cells were grown in RPMI medium containing 10% FCS. At 70% confluence cells were infected with adenoviruses harboring the gene of interest at a titer of 7 10^7 PFU/ml. After incubation for 2 h hours at 37° C., the virus-containing medium was diluted 1:5 in fresh RPMI medium. After 24 h the medium was replaced with a fresh RPMI medium containing 10% FCS. 48 h post-infection the Fao cells were starved in serum-free RPMI for 16 h and were then subjected to the indicated treatments as described below.
Treatment of cells and preparation of extracts—Virally-infected Fao cells were grown as described above. Nave Rat hepatoma (Fao) cells or CHO cells were grown in RPMI medium supplemented with 10% fetal calf serum as described (22). At 70-80% confluence, cells were deprived of serum for 16 h prior to each experiment, and were then incubated with inducers of insulin resistance and/or insulin. […]

The target in assay [4] is T1, Myc-PH/PTB-L (Mus musculus, UniProt P35569).
T1 construct: Myc-tagged truncated IRS-1 (aa 1-430, PH/PTB-L); expressed in transfected cells; host or cells: CHO-T cells, transient transfection with pcDNA3-Myc-PH/PTB (1-1290 nt)
T1 sequence (P35569 1-430): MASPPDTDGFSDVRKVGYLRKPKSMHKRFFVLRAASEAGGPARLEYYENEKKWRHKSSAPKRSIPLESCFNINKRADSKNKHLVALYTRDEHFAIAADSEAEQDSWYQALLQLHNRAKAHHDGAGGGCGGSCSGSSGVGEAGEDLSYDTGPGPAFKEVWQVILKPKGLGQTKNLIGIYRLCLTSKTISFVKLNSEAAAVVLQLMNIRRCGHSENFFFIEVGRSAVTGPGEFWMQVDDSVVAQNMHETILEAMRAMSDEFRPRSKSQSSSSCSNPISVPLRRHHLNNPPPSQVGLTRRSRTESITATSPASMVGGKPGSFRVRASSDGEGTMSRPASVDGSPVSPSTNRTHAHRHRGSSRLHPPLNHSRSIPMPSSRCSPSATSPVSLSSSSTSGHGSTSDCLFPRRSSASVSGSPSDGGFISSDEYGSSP
Put plainly: In vitro dephosphorylation of Myc-PH/PTB-L with calf intestine alkaline phosphatase. The format is biochemical. Conditions: 3 units CIP, 37° C., 1 h. On the procedure: FIGS. 7a-c show In vivo phosphorylation of PH/PTB-L in response to insulin. CHO-T cells were transiently transfected with pcDNA3-Myc-PH/PTB (1-1290 nt) or with an insert-free plasmid (control). Twenty-four hours post-transfection, the cells were deprived of serum for 16 h and were then treated with insulin for the indicated time periods. Cell extracts (100 μg) were resolved on 10% SDS-PAGE and immunoblotted with anti-pY or anti-Myc antibodies (FIG. 7a). In parallel, samples (100 μg, 40 μl) were incubated with 3 units (U) of calf intestine phosphatase (CIP) at 37° C. for 1 h. The samples were resolved on 10% SDS-PAGE and immunoblotted with anti-Myc antibodies (FIG. 7b). The results are of a representative of two experiments. FIG. 7c—CHO^PH/PTB-L cells were starved in serum-free F12 medium for 16 h. The cells were treated for 30 min with the indicated inhibitors prior to being treated with 100 nM insulin for 30 min. Cell extracts were prepared, samples were resolved on 10% SDS-PAGE and were immunoblotted with anti-Myc antibodies. Results are of a representative of three experiments.

Here are results for two molecules from US20110104167A1, “Compositions and Methods for Diagnosing and Treating Insulin Resistance” (YEDA RESEARCH AND DEVELOPMENT CO. LTD., priority 2004, published 2011).

Regarding insulin: human insulin used as stimulus, the “insulin treatment time at which maximal Tyr phosphorylation of IRS-1 was detected” value in assay [1] is 2 min. The “reduction in ability of IRS-1 to interact with the insulin receptor” value in assay [2] is > 40%. In addition, the “incubation time required for maximal phosphorylation of Ser408” value in assay [3] was 30 to 60 min.

B1: CIP: calf intestine alkaline phosphatase (protein, UniProt P19111 20-506, looked up)
Intestinal-type alkaline …: LVPVEEEDPAFWNRQAAQALDVAKKLQPIQTAAKNVILFLGDGMGVPTVTATRILKGQMNGKLGPETPLAMDQFPYVALSKTYNVDRQVPDSAGTATAYLCGVKGNYRTIGVSAAARYNQCKTTRGNEVTSVMNRAKKAGKSVGVVTTTRVQHASPAGAYAHTVNRNWYSDADLPADAQMNGCQDIAAQLVNNMDIDVILGGGRKYMFPVGTPDPEYPDDASVNGVRKRKQNLVQAWQAKHQGAQYVWNRTALLQAADDSSVTHLMGLFEPADMKYNVQQDHTKDPTLQEMTEVALRVVSRNPRGFYLFVEGGRIDHGHHDDKAYMALTEAGMFDNAIAKANELTSELDTLILVTADHSHVFSFGGYTLRGTSIFGLAPSKALDSKSYTSILYGNGPGYALGGGSRPDVNDSTSEDPSYQQQAAVPQASETHGGEDVAVFARGPQAHLVHGVEEETFVAHIMAFAGCVEPYTDCNLPAPTTATSIPD
Turning to B1, the “effect on mobility shift of PH/PTB-L from insulin-treated cells” value in assay [4] is recorded as “abolished the mobility shift”.
